Measurements published in the NIST ThermoML archive (doi:10.1016/j.jct.2005.02.011).

What was measured:
[1] = xn = mol fraction of the nth substance listed; details: 298.15 K, 101.33 kPa, Liquid
[2] = 298.15 K; 101.33 kPa; Liquid
[3] = excess molar enthalpy (molar enthalpy of mixing); xn = mol fraction of the nth substance listed; details: 298.15 K, 101.33 kPa, Liquid

COCCO [2-methoxyethan-1-ol] + COC(F)(F)C(F)(F)C(F)(F)C(F)(F)F
Details | mass density [kg/m3]
[1], x2 = 0 | 960.01

CCOCCO [2-ethoxyethan-1-ol]
Details | mass density [kg/m3]
[2] | 924.92

COC(F)(F)C(F)(F)C(F)(F)C(F)(F)F [1-methoxy-nonafluorobutane]
Details | mass density [kg/m3]
[2] | 1516.5

COC(F)(F)C(F)(F)C(F)(F)C(F)(F)F [1-methoxy-nonafluorobutane] + CCCCOCCO
Details | excess molar enthalpy, [3] [kcal/mol] | mass density, [1] [kg/m3]
x1 = 0.02507 | – | 915.04
x1 = 0.05001 | 0.04 | –
x1 = 0.05002 | – | 932.88
x1 = 0.1 | 0.0726 | –
x1 = 0.1001 | – | 969.14
x1 = 0.1499 | – | 1004.19
x1 = 0.1998 | – | 1038.73
x1 = 0.2 | 0.122 | –
x1 = 0.2497 | – | 1072.68
x1 = 0.2995 | – | 1105.83
x1 = 0.3 | 0.157 | –
x1 = 0.3499 | – | 1138.71
x1 = 0.4001 | 0.18 | –
x1 = 0.41 | – | 1176.96
x1 = 0.4499 | – | 1201.93
x1 = 0.5001 | 0.195 | –
x1 = 0.5155 | – | 1242.24
x1 = 0.5499 | – | 1262.86
x1 = 0.5501 | 0.2 | –
x1 = 0.5999 | – | 1292.53
x1 = 0.6001 | 0.202 | –
x1 = 0.65 | – | 1321.64
x1 = 0.6501 | 0.203 | –
x1 = 0.6999 | – | 1350.17
x1 = 0.7 | 0.2 | –
x1 = 0.7499 | – | 1378.23
x1 = 0.75 | 0.194 | –
x1 = 0.8 | 0.184 | 1405.94
x1 = 0.85 | 0.168 | –
x1 = 0.8502 | – | 1433.58
x1 = 0.9 | 0.142 | –
x1 = 0.9002 | – | 1461.09
x1 = 0.95 | 0.1 | 1488.03
x1 = 0.9749 | – | 1501.9
x1 = 0.975 | 0.0629 | –
x1 = 1 | – | 1516.5

COCCOCCOC [2,5,8-trioxanonane] + COC(F)(F)C(F)(F)C(F)(F)C(F)(F)F
Details | mass density [kg/m3]
[1], x2 = 0 | 938.62

COCCO [2-methoxyethan-1-ol]
Details | mass density [kg/m3]
[2] | 960.01

COC(F)(F)C(F)(F)C(F)(F)C(F)(F)F [1-methoxy-nonafluorobutane] + COCCOCCOC
Details | excess molar enthalpy [kcal/mol] | mass density [kg/m3]
[1], x1 = 0.02464 | – | 954.08
[1], x1 = 0.0497 | – | 969.75
[1], x1 = 0.1001 | – | 1001.04
[1], x1 = 0.1498 | – | 1031.72
[1], x1 = 0.1998 | – | 1062.36
[1], x1 = 0.2496 | – | 1092.61
[1], x1 = 0.2994 | – | 1122.54
[1], x1 = 0.3493 | – | 1152.22
[1], x1 = 0.3998 | – | 1181.93
[1], x1 = 0.4496 | – | 1210.92
[1], x1 = 0.4998 | – | 1239.78
[1], x1 = 0.5495 | – | 1268.27
[1], x1 = 0.5999 | – | 1296.83
[1], x1 = 0.6499 | – | 1324.79
[1], x1 = 0.6993 | – | 1352.36
[1], x1 = 0.7495 | – | 1380.12
[1], x1 = 0.7996 | – | 1407.65
[1], x1 = 0.8498 | – | 1435.09
[1], x1 = 0.8997 | – | 1462.11
[1], x1 = 0.9498 | – | 1489.22
[1], x1 = 0.9749 | – | 1502.87
[1], x1 = 1 | – | 1516.5
[3], x1 = 0.05001 | 0.0399 | –
[3], x1 = 0.1 | 0.066 | –
[3], x1 = 0.15 | 0.081 | –
[3], x1 = 0.2 | 0.0883 | –
[3], x1 = 0.25 | 0.0919 | –
[3], x1 = 0.3 | 0.0915 | –
[3], x1 = 0.35 | 0.0883 | –
[3], x1 = 0.4001 | 0.0839 | –
[3], x1 = 0.5001 | 0.0705 | –
[3], x1 = 0.6001 | 0.0546 | –
[3], x1 = 0.7 | 0.038 | –
[3], x1 = 0.8 | 0.022 | –
[3], x1 = 0.9 | 0.00844 | –
[3], x1 = 0.95 | 0.00265 | –

COC(F)(F)C(F)(F)C(F)(F)C(F)(F)F [1-methoxy-nonafluorobutane] + COCCO
Details | excess molar enthalpy, [3] [kcal/mol] | mass density, [1] [kg/m3]
x1 = 0.00553 | – | 965.99
x1 = 0.01007 | – | 970.85
x1 = 0.02663 | – | 988.18
x1 = 0.02992 | – | 991.62
x1 = 0.03967 | – | 1001.54
x1 = 0.04976 | – | 1011.78
x1 = 0.05 | 0.0487 | –
x1 = 0.05995 | – | 1021.9
x1 = 0.06979 | – | 1031.53
x1 = 0.07991 | – | 1041.28
x1 = 0.08992 | – | 1050.63
x1 = 0.09992 | – | 1059.88
x1 = 0.1 | 0.0727 | –
x1 = 0.1999 | – | 1144.03
x1 = 0.2 | 0.1 | –
x1 = 0.2999 | – | 1215.05
x1 = 0.3 | 0.119 | –
x1 = 0.4 | – | 1275.68
x1 = 0.4001 | 0.133 | –
x1 = 0.5 | 0.144 | –
x1 = 0.5001 | – | 1328.23
x1 = 0.5501 | 0.149 | –
x1 = 0.5997 | – | 1373.83
x1 = 0.6001 | 0.154 | –
x1 = 0.6501 | 0.153 | –
x1 = 0.7001 | 0.153 | 1414.55
x1 = 0.75 | 0.151 | –
x1 = 0.8001 | 0.146 | –
x1 = 0.8005 | – | 1451
x1 = 0.85 | 0.137 | –
x1 = 0.8997 | – | 1483.83
x1 = 0.9 | 0.121 | –
x1 = 0.9106 | – | 1487.37
x1 = 0.9204 | – | 1490.55
x1 = 0.9304 | – | 1493.65
x1 = 0.9403 | – | 1496.79
x1 = 0.95 | 0.0872 | –
x1 = 0.9508 | – | 1500.13
x1 = 0.9604 | – | 1503.16
x1 = 0.971 | – | 1506.5
x1 = 0.975 | 0.0582 | –
x1 = 0.98 | – | 1509.57
x1 = 0.99 | – | 1512.86
x1 = 0.9948 | – | 1514.59
x1 = 1 | – | 1516.5

CCOCCO [2-ethoxyethan-1-ol] + COC(F)(F)C(F)(F)C(F)(F)C(F)(F)F
Details | mass density [kg/m3]
[1], x2 = 0 | 924.92

COCCOCCOC [2,5,8-trioxanonane]
Details | mass density [kg/m3]
[2] | 938.62

COCCOCCO [2-(2-methoxyethoxy)ethanol] + COC(F)(F)C(F)(F)C(F)(F)C(F)(F)F
Details | excess molar enthalpy, [3] [kcal/mol] | mass density, [1] [kg/m3]
x2 = 0 | – | 1015.6
x2 = 0.02479 | – | 1031.94
x2 = 0.04975 | – | 1048.37
x2 = 0.05006 | 0.0519 | –
x2 = 0.09963 | – | 1080.8
x2 = 0.1001 | 0.0713 | –
x2 = 0.1498 | – | 1112.38
x2 = 0.1999 | – | 1142.86
x2 = 0.2002 | 0.0873 | –
x2 = 0.2495 | – | 1172.17
x2 = 0.2996 | – | 1200.75
x2 = 0.3003 | 0.0967 | –
x2 = 0.3996 | – | 1254.72
x2 = 0.4003 | 0.102 | –
x2 = 0.4503 | 0.103 | –
x2 = 0.4994 | – | 1304.76
x2 = 0.5003 | 0.103 | –
x2 = 0.5503 | 0.103 | –
x2 = 0.5984 | – | 1351.61
x2 = 0.6003 | 0.103 | –
x2 = 0.6503 | 0.102 | –
x2 = 0.699 | – | 1396.09
x2 = 0.7003 | 0.101 | –
x2 = 0.7499 | – | 1417.68
x2 = 0.7998 | – | 1438.09
x2 = 0.8002 | 0.0953 | –
x2 = 0.85 | – | 1458.09
x2 = 0.8999 | – | 1477.55
x2 = 0.9001 | 0.0773 | –
x2 = 0.9501 | 0.055 | 1496.84
x2 = 0.9749 | – | 1506.46

COC(F)(F)C(F)(F)C(F)(F)C(F)(F)F [1-methoxy-nonafluorobutane] + COCCOCCO
Details | mass density [kg/m3]
[1], x1 = 1 | 1516.5

CCCCOCCO [2-butoxyethan-1-ol]
Details | mass density [kg/m3]
[2] | 896.25

COC(F)(F)C(F)(F)C(F)(F)C(F)(F)F [1-methoxy-nonafluorobutane] + CCOCCO
Details | excess molar enthalpy [kcal/mol] | mass density [kg/m3]
[1], x1 = 0.00503 | – | 929.7
[1], x1 = 0.01079 | – | 934.97
[1], x1 = 0.02102 | – | 944.32
[1], x1 = 0.02987 | – | 952.74
[1], x1 = 0.04002 | – | 961.9
[1], x1 = 0.04998 | – | 970.86
[1], x1 = 0.05985 | – | 979.66
[1], x1 = 0.07003 | – | 988.6
[1], x1 = 0.07976 | – | 997.21
[1], x1 = 0.09179 | – | 1007.4
[1], x1 = 0.09978 | – | 1014.34
[1], x1 = 0.1998 | – | 1094.44
[1], x1 = 0.2999 | – | 1166.16
[1], x1 = 0.3998 | – | 1230.34
[1], x1 = 0.4998 | – | 1288.32
[1], x1 = 0.5999 | – | 1340.92
[1], x1 = 0.6998 | – | 1389.17
[1], x1 = 0.7996 | – | 1433.24
[1], x1 = 0.9003 | – | 1475.39
[1], x1 = 0.9098 | – | 1479.22
[1], x1 = 0.9198 | – | 1482.97
[1], x1 = 0.9304 | – | 1487.24
[1], x1 = 0.9399 | – | 1491.41
[1], x1 = 0.9502 | – | 1495.54
[1], x1 = 0.9587 | – | 1499
[1], x1 = 0.969 | – | 1503.23
[1], x1 = 0.9802 | – | 1507.87
[1], x1 = 0.9901 | – | 1512.09
[1], x1 = 0.9949 | – | 1514.04
[1], x1 = 1 | – | 1516.5
[3], x1 = 0.05001 | 0.0376 | –
[3], x1 = 0.1 | 0.0615 | –
[3], x1 = 0.2 | 0.0937 | –
[3], x1 = 0.3 | 0.117 | –
[3], x1 = 0.4001 | 0.135 | –
[3], x1 = 0.5001 | 0.149 | –
[3], x1 = 0.5501 | 0.153 | –
[3], x1 = 0.6001 | 0.158 | –
[3], x1 = 0.6501 | 0.159 | –
[3], x1 = 0.7 | 0.159 | –
[3], x1 = 0.75 | 0.157 | –
[3], x1 = 0.8 | 0.151 | –
[3], x1 = 0.85 | 0.141 | –
[3], x1 = 0.9 | 0.121 | –
[3], x1 = 0.95 | 0.0866 | –
[3], x1 = 0.9507 | 0.0867 | –
[3], x1 = 0.975 | 0.056 | –

COCCOCCO [2-(2-methoxyethoxy)ethanol]
Details | mass density [kg/m3]
[2] | 1015.6

CCCCOCCO [2-butoxyethan-1-ol] + COC(F)(F)C(F)(F)C(F)(F)C(F)(F)F
Details | mass density [kg/m3]
[1], x2 = 0 | 896.25
